Measurements: the NIST ThermoML archive (doi:10.1021/je700414c)

Test: excess molar enthalpy (molar enthalpy of mixing); xn = mol fraction of the nth substance listed
Details: 303.15 K, 101 kPa, Liquid

CNC(C)=O [N-methylacetamide] + Cc1ccc(C)cc1
Details	excess molar enthalpy [kcal/mol]
x1 = 0.1224	0.0667
x1 = 0.1703	0.0696
x1 = 0.2407	0.0705
x1 = 0.3474	0.0705
x1 = 0.4018	0.0679
x1 = 0.4704	0.0624
x1 = 0.6138	0.0514
x1 = 0.7126	0.0402
x1 = 0.7529	0.0366
x1 = 0.8617	0.0198

CNC=O [N-methylformamide] + Cc1ccccc1
Details	excess molar enthalpy [kcal/mol]
x1 = 0.1531	0.0975
x1 = 0.1852	0.102
x1 = 0.2625	0.11
x1 = 0.3018	0.112
x1 = 0.3404	0.115
x1 = 0.3983	0.115
x1 = 0.4643	0.116
x1 = 0.4821	0.114
x1 = 0.5253	0.11
x1 = 0.5951	0.103
x1 = 0.6171	0.102
x1 = 0.645	0.0961
x1 = 0.7416	0.0765
x1 = 0.8178	0.0574
x1 = 0.9166	0.0304

CNC(C)=O [N-methylacetamide] + Cc1ccccc1
Details	excess molar enthalpy [kcal/mol]
x1 = 0.1142	0.0619
x1 = 0.2405	0.0619
x1 = 0.2954	0.0571
x1 = 0.377	0.0528
x1 = 0.4002	0.0521
x1 = 0.4365	0.0478
x1 = 0.4708	0.0442
x1 = 0.5227	0.0428
x1 = 0.5843	0.039
x1 = 0.6502	0.0301
x1 = 0.7076	0.0253
x1 = 0.7798	0.0179
x1 = 0.9016	0.00741

CNC=O [N-methylformamide] + c1ccccc1
Details	excess molar enthalpy [kcal/mol]
x1 = 0.0011	0.00263
x1 = 0.0019	0.00454
x1 = 0.1401	0.081
x1 = 0.2247	0.0918
x1 = 0.2851	0.0968
x1 = 0.3412	0.0994
x1 = 0.372	0.101
x1 = 0.428	0.0997
x1 = 0.4525	0.0978
x1 = 0.5333	0.0927
x1 = 0.6012	0.0837
x1 = 0.6365	0.0796
x1 = 0.7237	0.065
x1 = 0.8274	0.0425

CNC(C)=O [N-methylacetamide] + c1ccccc1
Details	excess molar enthalpy [kcal/mol]
x1 = 0.0848	0.0511
x1 = 0.1579	0.0562
x1 = 0.2196	0.0576
x1 = 0.2809	0.0564
x1 = 0.3924	0.0516
x1 = 0.4282	0.0464
x1 = 0.4628	0.0421
x1 = 0.495	0.0392
x1 = 0.5438	0.0344
x1 = 0.567	0.0335
x1 = 0.6331	0.0294
x1 = 0.766	0.0172
x1 = 0.8432	0.0124
x1 = 0.8931	0.00837

CNC=O [N-methylformamide] + Cc1ccc(C)cc1
Details	excess molar enthalpy [kcal/mol]
x1 = 0.0589	0.0696
x1 = 0.0809	0.0789
x1 = 0.1371	0.105
x1 = 0.648	0.117
x1 = 0.7042	0.105
x1 = 0.7619	0.0911
x1 = 0.8196	0.0722
x1 = 0.8715	0.0533
x1 = 0.9536	0.0241

CNC(C)=O [N-methylacetamide] + Cc1cc(C)cc(C)c1
Details	excess molar enthalpy [kcal/mol]
x1 = 0.1463	0.0817
x1 = 0.2448	0.0927
x1 = 0.3271	0.103
x1 = 0.4098	0.105
x1 = 0.4989	0.104
x1 = 0.5612	0.0978
x1 = 0.6649	0.0837
x1 = 0.7283	0.0758
x1 = 0.8071	0.0607
x1 = 0.884	0.0421
